Biological target: T1, human and rat GPR-14 (UniProt Q9UKP6)
T1 sequence (Q9UKP6 1-389): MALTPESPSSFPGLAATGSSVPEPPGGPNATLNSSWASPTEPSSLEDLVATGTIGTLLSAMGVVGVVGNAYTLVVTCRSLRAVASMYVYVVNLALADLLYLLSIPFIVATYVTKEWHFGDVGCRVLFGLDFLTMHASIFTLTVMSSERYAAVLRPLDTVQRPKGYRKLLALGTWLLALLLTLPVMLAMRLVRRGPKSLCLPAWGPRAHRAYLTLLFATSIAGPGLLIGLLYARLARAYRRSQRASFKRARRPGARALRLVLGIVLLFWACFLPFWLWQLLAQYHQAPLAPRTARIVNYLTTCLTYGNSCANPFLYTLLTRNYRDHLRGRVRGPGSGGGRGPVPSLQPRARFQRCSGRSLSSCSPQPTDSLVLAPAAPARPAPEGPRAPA
Assay: Radioligand binding, [125I] h-U-II, HEK-293 cell membranes
Conditions: radioligand binding assay; HEK-293 cell membranes with stable cloned GPR-14; 200 pM [125I] h-U-II
Procedure: HEK-293 cell membranes containing stable cloned human and rat GPR-14 (20 ug/assay) were incubated with 200 pM [125I] h-U-II (200 Ci/mmol^−1 in the presence of increasing concentrations of test compounds in DMSO (0.1 nM to 10 uM), in a final incubation volume of 200 ul (20 mM Tris-HCl, 5 mM MgCl2). Incubation was done for 30 minutes at room temperature followed by filtration GF/B filters with Brandel cell harvester. ^125I labeled U-II binding was quantitated by gamma counting. Nonspecific binding was defined by ^125I U-II binding in the presence of 100 nM of unlabeled human U-II. Analysis of the data was performed by nonlinear least square fitting.

`COc1cc(NCCCNC(=O)C(c2ccccc2)c2ccccc2)nc2ccccc12` [Example 29, N-[3-(4-Methoxy-quinolin-2-ylamino)-propyl]-2,2-diphenyl-acetamide] showed a Ki of 90 nM.

— patent US6818655B2, “Urotensin-II receptor antagonists” (SmithKline Beecham Corporation, priority 2001, dated 2004)
